What follows are molecules tested against T. gondii adenosine kinase (Toxoplasma gondii, UniProt Q9TVW2) (assay: biochemical). Settings: not given.
Procedure: Preparation of cytosol extracts. For the structure activity relationships studies, approximately 5×10^8 T. gondii were suspended in 1.2 ml of 50 mM N-2-hydroxyethylpiperazine-N'-2-ethanesulfonic acid (HEPES)-Cl (pH 8.0)/1 mM dithiothreitol and homogenized for 30 seconds at setting 10, using a Brinnmann Instruments Polytron homogenizer fitted with a PTA 7K1 probe. The homogenate was then centrifuged at approximately 116,000 g for 1 hour at 5° and the supernatant (cytosol extract) collected and used as the enzyme source. Fresh cytosol extracts were prepared for each experiment.
Adenosine kinase assay. T. gondii adenosine kinase activity was measured by following the formation of [^14 C]AMP from [^14 C]adenosine and ATP. […] Therefore, the standard reaction mixture contained 50 mM HEPES-Cl (pH 8.0), 1 mM dithiothreitol, 5 μM [8-^14 C]adenosine (45 Ci/mol), 0.5 mM ATP, 0.5 mM MgCl2, 25 μM (+)-EHNA or 100 μM (±)-EHNA,10-30 μl of cytosol extract (approximately 3-10 μg of protein), and either 0, 0.1, 0.25, 0.5 or 1.0 mM of the compound to be tested, in a final volume of 150 μl.
Reactions were started by the addition of [8-^14 C]adenosine, incubated at 37° for 10 minutes and terminated by placing the reaction tubes in a boiling water bath for 2 minutes. Precipitated proteins were removed by centrifugation in a microcentrifuge (approximately 13,000 g) for 5 minutes, and a 15 μl aliquot of the resulting supernatant was mixed with 5 μl of a solution containing 10 mM each of AMP and adenosine. This mixture was then spotted on silica gel thin layer chromatography plates which were developed with a mixture of chloroform/methanol/acetic acid (16:3:1). […] The substrate and product spots (which accounted for all of the radioactivity on the plates) were identified by UV quenching, cut out, and the radioactivity quantitated by liquid scintillation counting in 20 ml of Scintilene, using a Packard 460 scintillation counter. […] Enzyme velocity was calculated by multiplying the fraction of AMP formed from adenosine times the amount of adenosine in the assay, and dividing by the incubation time.
Determination and significance of AppKi values. AppKi values were used to determine the relative degree of binding of compounds to adenosine kinase as compared to adenosine. AppKi values were estimated from Dixon plots of the data (1/.nu. versus [I]), using a computer program with least squares fitting according to the general principles of Cleland (Cleland, W W, The statistical analysis of enzyme kinetic data. Adv. Enzymol. 29:1-32, 1967). The program was written by Dr. Sungman Cha (Brown University, Providence, R.I.) and modified to fit IBM BASIC by Dr. Fardos N. M. Naguib. […] It should be noted, however, that the type of inhibition (i.e., competitive, noncompetitive, or uncompetitive) produced by the compounds was not determined, nor were the compounds evaluated as substrates for T. gondii adenosine kinase.

Sequence of T. gondii adenosine kinase (Q9TVW2 whole entry): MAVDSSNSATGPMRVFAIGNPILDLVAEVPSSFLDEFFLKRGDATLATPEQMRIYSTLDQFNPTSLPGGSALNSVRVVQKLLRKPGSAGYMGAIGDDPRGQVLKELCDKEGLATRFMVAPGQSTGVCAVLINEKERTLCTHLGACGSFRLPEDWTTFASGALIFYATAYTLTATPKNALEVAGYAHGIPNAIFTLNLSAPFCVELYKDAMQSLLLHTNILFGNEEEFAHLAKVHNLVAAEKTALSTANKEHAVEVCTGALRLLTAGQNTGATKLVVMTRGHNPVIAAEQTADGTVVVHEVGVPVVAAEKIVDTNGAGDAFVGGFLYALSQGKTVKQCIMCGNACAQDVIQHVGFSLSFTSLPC

Compared with `C=CCNc1ncnc2c1ncn2[C@@H]1O[C@H](CO)[C@@H](O)[C@H]1O` [Compound 30], `CCNc1ncnc2c1ncn2[C@@H]1O[C@H](CO)[C@@H](O)[C@H]1O` [Compound 28] is 2.2-fold lower in Ki: 220 ± 20 µM for the first, 100 ± 3 µM for the second. The second binds more tightly here.

First: Nc1ncnc2c1cnn2[C@@H]1O[C@H](CO)[C@@H](O)[C@H]1O [Compound 72, 8-Aza-7-deazaadenosine]
Second: O=c1[nH]cnc2c1cnn2[C@@H]1O[C@H](CO)[C@@H](O)[C@H]1O [Compound 77, 8-Aza-6-hydroxy-7-deazapurine riboside (allopurinol)]
The Ki of the first is 8.8-fold lower: 1700 µM for the first, 15000 µM for the second. The first binds more tightly here.

`NC(=NO)c1cn([C@@H]2O[C@H](CO)[C@@H](O)[C@H]2O)c2ncnc(N)c12` [Compound 56] and `NC(=NO)c1c(Br)n([C@@H]2O[C@H](CO)[C@@H](O)[C@H]2O)c2ncnc(N)c12` [Compound 73, 8-Bromo-7-carboxyamidoxime-7-deazaadenosine] are within error of each other in Ki: 200 ± 6 µM for the first, 210 ± 30 µM for the second.

First: Nc1c2ncn([C@@H]3O[C@H](CO)[C@@H](O)[C@H]3O)c2nc[n+]1[O-] [Compound 4]
Second: Nc1ncnc2c1ncn2[C@@H]1O[C@H](CO)[C@@H](O)[C@H]1O [Compound 1]
The Ki of the first is 180-fold higher: 1230 µM for the first, 7 ± 3.3 µM for the second. The second binds more tightly here.

Going from `Nc1ncnc2c([C@@H]3O[C@H](CO)[C@@H](O)[C@H]3O)c[nH]c12` [Compound 60] to `Nc1ncnc2c1nnn2[C@@H]1O[C@H](CO)[C@@H](O)[C@H]1O` [Compound 57], the Ki falls from 3400 µM to 23 ± 6 µM (150-fold). The second binds more tightly here.

`CNc1ncnc2c1c(C(N)=S)cn2[C@@H]1O[C@H](CO)[C@@H](O)[C@H]1O` [Compound 71, N^6 -Methyl-7-thiocarboxyamido-7-deazaadenosine] and `NNc1ncnc2c1ccn2[C@@H]1O[C@H](CO)[C@@H](O)[C@H]1O` [Compound 69, 6-Hydrazino-7-deazapurine riboside] are within 1.5-fold of each other in Ki: 150 ± 1 µM for the first, 180 ± 10 µM for the second.

`OC[C@H]1O[C@@H](n2cnc3c2N=CNC[C@H]3O)[C@H](O)[C@@H]1O` [Compound 85, Coformycin] and `NC(=O)c1ncn([C@@H]2O[C@H](CO)[C@@H](O)[C@H]2O)c1N` [Compound 123, 5'-Aminoimidazole-4-carboxamide riboside] are within 1.5-fold of each other in Ki: 2000 µM for the first, 2400 µM for the second.

Compared with `O=c1[nH]cnc2c([C@@H]3O[C@H](CO)[C@@H](O)[C@H]3O)n[nH]c12` [Compound 82, 8-Aza-9-deazainosine (formycin B)], `Nc1nc(Cl)c2ncn([C@@H]3O[C@H](CO)[C@@H](O)[C@H]3O)c2n1` [Compound 63] is 1.7-fold lower in Ki: 3100 µM for the first, 1800 µM for the second.

Going from `C[C@H](Cc1ccccc1)Nc1ncnc2c1ncn2[C@@H]1O[C@H](CO)[C@@H](O)[C@H]1O` [Compound 49] to `OC[C@H]1O[C@@H](n2cnc3c(NCc4ccccc4)ncnc32)[C@H](O)[C@@H]1O` [Compound 45], the Ki falls from 750 ± 30 µM to 100 ± 30 µM (7.5-fold).

Going from `COc1ccc(C[C@H](N)C(=O)N[C@H]2[C@@H](O)[C@H](n3cnc4c(N(C)C)ncnc43)O[C@@H]2CO)cc1` [Compound 124, 3'(α-Amino-p-methoxyhydrocinnamamido)-3'-deoxy-N^6-dimethyladenosine (Puromycin)] to `Nc1ccc(CNc2ncnc3c2ncn3[C@@H]2O[C@H](CO)[C@@H](O)[C@H]2O)cc1` [Compound 46], the Ki falls from 1300 µM to 120 ± 10 µM (11-fold). The second binds more tightly here.

First: Nc1ncnc2c1ncn2[C@@H]1O[C@H](COC(=O)CCC(=O)O)[C@@H](O)[C@H]1O [Compound 100, 5'-Succinyladenosine (adenosine 5'-succinate)]
Second: OC[C@H]1O[C@@H](n2cnc3c(Br)ncnc32)[C@H](O)[C@@H]1O [Compound 12]
The Ki of the first is 33-fold higher: 920 ± 600 µM for the first, 28 ± 2 µM for the second.

Going from `CSc1ncnc2c1nnn2[C@@H]1O[C@H](CO)[C@@H](O)[C@H]1O` [Compound 83, 8-Aza-6-methylmercaptopurine riboside] to `OC[C@H]1O[C@@H](n2ccc3c(Cl)ncnc32)[C@H](O)[C@@H]1O` [Compound 68], the Ki falls from 130 ± 40 µM to 72 ± 12 µM (1.8-fold).

Going from `O=C(Nc1ncnc2c1ncn2[C@@H]1O[C@H](CO)[C@@H](O)[C@H]1O)c1ccccc1` [Compound 44] to `OC[C@H]1O[C@@H](n2cnc3c(Nc4ccccc4)ncnc32)[C@H](O)[C@@H]1O` [Compound 43], the Ki rises from 23 ± 1 µM to 88 ± 12 µM (3.8-fold). The first binds more tightly here.

Compared with `Nc1ncnc2c1ncn2[C@H]1C[C@H](O)[C@@H](CO)O1` [Compound 87, 2'-Deoxyadenosine], `Nc1ncnc2c1ncn2[C@@H]1O[C@H](CO)C[C@H]1O` [Compound 90, 3'-Deoxyadenosine (Cordycepin)] is 3.8-fold lower in Ki: 4200 µM for the first, 1100 µM for the second.

First: Nc1nc(NC2C=C(CO)C(O)C2O)c([N+](=O)[O-])c(=O)[nH]1 (centres unmarked) [Compound 127, 2-Amino-4-(3-hydroxymethyl-4,5-dihydroxy-2-cyclopenten-1-yl)aminto-1,6-dihydro-5-nitro-6-oxopyrimidine]
Second: Nc1ncnc2nc[nH]c12 [Compound 115, Adenine]
The Ki of the first is 6.9-fold lower: 940 ± 110 µM for the first, 6500 µM for the second.

Same assay, conditions: AppKi for inhibition of T. gondii adenosine kinase, 5 μM adenosine; ± range, at least two estimations

Compared with `CNc1ncnc2c1ncn2[C@@H]1O[C@H](CO)[C@@H](O)[C@H]1O` [Compound 26], `Nc1ncnc2c1ncn2[C@@H]1O[C@H](COS(=O)(=O)O)[C@@H](O)[C@H]1O` [Compound 97, 5'-Sufonyl adenosine (adenosine 5'-monosulfate)] is 9.1-fold higher in Ki: 23 ± 1 µM for the first, 210 ± 60 µM for the second. The first binds more tightly here.

Going from `NC(=O)c1cn([C@@H]2O[C@H](CO)C[C@H]2O)c2ncnc(N)c12` [Compound 120, 7-Deaza-7-carboxamido-3'-deoxyadenosine (3'-Deoxysangivamycin)] to `N#Cc1cn([C@@H]2O[C@H](CO)[C@@H](O)[C@H]2O)c2ncnc(N)c12` [Compound 54], the Ki falls from 110 ± 20 µM to 21 ± 2 µM (5.2-fold). The second binds more tightly here.

Compared with `Nc1ncnc2c1ccn2[C@@H]1O[C@H](CO)[C@@H](O)[C@H]1O` [Compound 51], `N#Cc1cn([C@@H]2O[C@H](CO)[C@@H](O)[C@H]2O)c2ncnc(N)c12` [Compound 54, 7-Cyano-7-deazaadenosine (Toyocamycin)] is lower in Ki: 340 ± 80 µM for the first, under 60 µM for the second. The second binds more tightly here.

`Nc1ncnc2c1ncn2[C@@H]1O[C@](F)(COS(N)(=O)=O)[C@@H](O)[C@H]1O` [Compound 111, 4'-Flouro-5'-O-sulfamoyladenosine (nucleocidin)] and `Nc1ncnc2c1ncn2[C@@H]1O[C@H](C(=O)NC2CC2)[C@@H](O)[C@H]1O` [Compound 104, 5'-N-(Cyclopropyl)carboxamidoadenosine] are within 1.5-fold of each other in Ki: 850 ± 220 µM for the first, 1100 µM for the second.

For `O=[N+]([O-])c1ccc(C[Se]c2ncnc3c2ncn3[C@@H]2O[C@H](CO)[C@@H](O)[C@H]2O)cc1` [Compound 24], the Ki was 84 ± 46 µM.

Same assay, conditions: read-out: Inhibition of T. gondii adenosine kinase

`CNC(=O)[C@H]1O[C@@H](n2cnc3c(N)ncnc32)[C@H](O)[C@@H]1O` [Compound 102, 5'-N-(Methyl)carboxamidoadenosine] and `CCNC(=O)[C@H]1O[C@@H](n2cnc3c(N)ncnc32)[C@H](O)[C@@H]1O` [Compound 103, 5'-N-(Ethyl)carboxamidoadenosine] cannot be ordered by inhibition at 1000 µM: under 10% for the first, under 10% for the second.

`OC[C@H]1O[C@@H](n2ncc3c(=S)[nH]cnc32)[C@H](O)[C@@H]1O` [Compound 78, 8-Aza-6-mercapto-7-deazapurine riboside] and `O=c1[nH]cnc2c1ncn2[C@@H]1O[C@H](CO)[C@@H](O)[C@H]1O` [Compound 15] cannot be ordered by inhibition at 1000 µM: under 10% for the first, under 10% for the second.

`CC(=O)OC[C@H]1O[C@@H](n2cnc3c(N)ncnc32)[C@H](O)[C@@H]1OC(C)=O` [Compound 110, 3',5'-Di-O-acetyladenosine] and `Nc1ncnc2c1ncn2[C@H]1O[C@@H](CO)[C@H](O)[C@@H]1O` [Compound 2] cannot be ordered by inhibition at 1000 µM: under 10% for the first, under 10% for the second.

`Nc1ncnc(NC2C=C(CO)C(O)C2O)c1[N+](=O)[O-]` (centres unmarked) [Compound 125, 4-(3-Hydroxymethyl-4,5-dihydroxy-2-cyclopenten-1-yl)amino-5-nitro-6-aminopyrimidine] and `CO[C@@H]1[C@H](O)[C@@H](CO)O[C@H]1n1cnc2c(N)ncnc21` [Compound 88, 2'-O-Methyladenosine] cannot be ordered by inhibition at 1000 µM: under 10% for the first, under 10% for the second.

`OC[C@H]1O[C@@H](n2cnc3ccccc32)[C@H](O)[C@@H]1O` [Compound 84, Benzimidazole riboside ("1,3-dideazapurine riboside")] and `Cc1ccc(S(=O)(=O)O[C@@H]2[C@H](O)[C@@H](CO)O[C@H]2n2cnc3c(N)ncnc32)cc1` [Compound 89, 2'Tosyladenosine] cannot be ordered by inhibition at 1000 µM: under 10% for the first, under 10% for the second.

Same assay, conditions: relative to adenosine

In the case of `CO[C@@H]1[C@H](O)[C@@H](CO)O[C@H]1n1cnc2c(N)ncnc21` [Compound 88, 2'-O-Methyladenosine], the “Effect on binding to T. gondii adenosine kinase, in words” value is reported as “abolishes”.

Same assay, conditions: relative to reference compound adenosine

Going from `Nc1ncnc2c1ncn2[C@H]1C[C@H](O)[C@@H](CO)O1` [Compound 87, 2'-Deoxyadenosine] to `Nc1ncnc2nc[nH]c12` [Compound 115, Adenine], the “Decrease in binding to T. gondii adenosine kinase” value rises from 600 fold to 930 fold.

Same assay, conditions: relative to sangivamycin

`NC(=O)c1cn([C@@H]2O[C@H](CO)C[C@H]2O)c2ncnc(N)c12` [Compound 120, 7-Deaza-7-carboxamido-3'-deoxyadenosine (3'-Deoxysangivamycin)] was tested, and the “Reduction of binding to T. gondii adenosine kinase” value was 2 fold.
